Patent US12358921B2, “Antiviral heterocyclic compounds” (priority 2022, dated 2025)

Key:
[1] = test system: HUMAN RSV-A (“LONG” STRAIN); assay: RSV-A assay (CPE, ATPlite) in Hep-2 cells; assay type: cell-based; conditions: human respiratory syncytial virus, 120 h, MOI 0.1, 5-day incubation
Outline: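 Hep-2 cells (8,000/well) given 2-fold serial compound dilutions in duplicate, then infected with RSV-A Long strain at MOI 0.1. After 5 days, virus-induced cytopathic effect quantified as cellular ATP by ATPlite luminescence, against virus-only and uninfected controls; EC50 reported in ranges.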

[2] = test system: hMPV A2 TN/94-49; assay: HMPV antiviral assay Method 1 (LLC-MK2 cells, ATP-Lite); assay type: cell-based; conditions: hMPV A2 TN/94-49, LLC-MK2 cells
Protocol: In vitro HMPV antiviral activity was evaluated using the clinical isolate A2 strain TN 94-49 (obtained from Dr. John Williams, Vanderbilt University, Tennessee) and […] cells (ATCC #CCL-7), an immortalized kidney epithelial cell line from Macaca mulatta. Compounds were resuspended in dimethyl sulfoxide (DMSO) at 10 mM, serially diluted and added to a 384-well source plate. Subsequently, the compounds were diluted and transferred onto 384-well assay plates using the Echo-650 automated liquid handling system (Beckman Coulter, Indiana). The test compounds were assessed in duplicate at a top concentration of 2 μM followed by 2.5-fold serial dilutions to give a total of 10 concentration points. DMSO control wells were also included on the assay plates and were either infected or not, acting as positive and negative controls. A2 TN 94-49 virus infections were performed in-suspension with LLC-MK2 cells. The cells were washed twice with PBS and removed from the cell-culture flask with 0.25% trypsin-EDTA (Thermo Fisher Scientific, MA). The trypsin-EDTA was inactivated by resuspending in 2% fetal bovine serum (FBS) and OptiMEM (ThermoFisher Scientific, MA) containing 1% penicillin-streptomycin. Cells were pelleted by centrifuging for 5 minutes at 800 rpm, the supernatant was removed, and cells were re-suspended and washed in PBS plus 100 μg/mL CaCl2). This step was performed twice. Cells were then re-suspended in serum-free (SF)-OptiMEM containing 4 μg/mL TPCK-Trypsin (Sigma Aldrich, MO), 1% penicillin-streptomycin (ThermoFisher Scientific, MA) and 100 μg/mL CaCl2). Cells were counted and seeded at a density of 5,000 cells/well, 12.5 μL/well. Virus infections were done at a multiplicity of infection (MOI) of 0.005 with 12.5 μL added per well. Virus infections were performed in infection media which contained SF-OptiMEM, 100 μg/mL CaCl2) and 1% penicillin-streptomycin. HMPV viral stocks are suspended in infection media+5% glycerol, thus an equal volume of infection media+5% glycerol was added to uninfected wells to equalize the final % glycerol across all wells of the assay plate. The final concentration of TPCK-trypsin was 2 μg/mL. The assay plates were incubated at 37° C., 5% CO2 for 7 days. After 7 days incubation, 12.5 μL of ATP-Lite (PerkinElmer, MA) was added to each well and the raw luminescence values were determined using the Envision 2104 (Perkin Elmer, MA). The average of the raw luminescence values for the cells and virus only positive control wells was subtracted from all conditions tested and the percent cell health was determined by dividing these values by the average of the cells only negative control wells. EC50 values were then calculated by non-linear regression using a four-parameter curve logistic equation. The curve fit model employed was XLFit Dose Response One Site Model 200: y=(A+(B/(1+((x/C)^D)))), where A is the minimum y value, B is the maximum y value, C is the log EC50value, and D is the slope factor. Method 2: In Vitro HMPV Antiviral Activity was Evaluated Using the Clinical Isolate A2 Strain TN 94-49

Structure (SMILES)	EC50 [1]	EC50 [2]
COc1cc(C(=O)NC[C@](O)(c2cc3c(c(-c4ccc(F)cc4O)n2)OC[C@]3(C)C(N)=O)C2CC2)cc2cn(C3CC3)nc12 [Example 63]	< 200 nM	> 500 nM
COc1cc(C(=O)NC[C@](O)(c2cc3c(c(-c4cc(F)c(F)cc4F)n2)OC[C@]3(C)C(N)=O)C2CC(F)(F)C2)cc2cn(C3CC3)nc12 [Example 31]	< 200 nM	< 500 nM
COc1cc(C(=O)NC[C@@](O)(c2ccccc2)c2cc3c(c(-c4cc(C(F)F)c(F)cc4F)n2)OC[C@]3(C)C(N)=O)cc2cn(C3CC3)nc12 [Example 288]	< 200 nM	< 500 nM
COc1cc(C(=O)NCC(O)(c2cc3c(c(-c4cc(Cl)c(F)cc4F)n2)OC[C@]3(C)C(N)=O)c2cc3ccccc3s2)cc2cn(C3CC3)nc12 (stereo partly drawn) [Example 469]	< 200 nM	> 500 nM
[2H]C([2H])([2H])c1nc2c(OC)cc(C(=O)NC[C@@](O)(c3ccccc3)c3cc4c(c(-c5ccc6c(c5)OC(F)(F)O6)n3)OC[C@]4(C)C(N)=O)cc2s1 [Example 9]	< 200 nM	< 500 nM
C[C@]1(C(N)=O)COc2c1cc([C@@](O)(CNC(=O)c1cc(OC(F)F)c3nn(C4CC4)cc3c1)C1CC1)nc2-c1ccc(F)c(Cl)c1F [Example 40]	< 200 nM	< 500 nM
Cc1nc2ccc(C(=O)NC[C@@](O)(c3ccccc3)c3cc4c(c(-c5cc(Cl)c(F)cc5F)n3)OC[C@]4(C)C(N)=O)cc2o1 [Example 86]	< 200 nM	< 500 nM
[2H]C([2H])([2H])c1nc2c(OC)cc(C(=O)NC[C@](O)(c3cc4c(c(-c5cc(F)c(F)cc5F)n3)OC[C@]4(C)C(N)=O)C3CC3)cc2cc1Br [Example 7]	< 200 nM	< 500 nM
Cc1nc2ccc(C(=O)NC[C@@](O)(c3cccc(F)c3)c3cc4c(c(-c5ccc6c(c5Cl)OC(F)(F)O6)n3)OC[C@]4(C)C(N)=O)cc2o1 [Example 284]	< 200 nM	< 500 nM
COc1cc(C(=O)NC[C@@](O)(c2cc3c(c(-c4cc(F)c(F)c(F)c4Cl)n2)OC[C@]3(C)C(N)=O)C(F)(F)F)cc2cn(C3CC3)nc12 [Example 58]	< 200 nM	> 500 nM
[2H]C([2H])([2H])c1cc2cc(C(=O)NC[C@](O)(c3cc4c(c(-c5ccc(F)c(Cl)c5)n3)OC[C@]4(C)C(N)=O)C(F)(F)F)cc(OC)c2nc1C [Example 20]	< 200 nM	> 500 nM
[2H]C([2H])([2H])c1cc2cc(C(=O)NC[C@](O)(c3cc4c(c(-c5cc(Cl)c(F)cc5F)n3)OC[C@]4(C)C(N)=O)C3CC3)cc(OC)c2nc1C([2H])([2H])[2H] [Example 29]	< 200 nM	< 500 nM
Cc1nc2ccc(C(=O)NC[C@@](O)(c3cccc(F)c3)c3cc4c(c(-c5ccc(F)c(Cl)c5Cl)n3)OC[C@]4(C)C(N)=O)cc2o1 [Example 283]	< 200 nM	< 500 nM
COc1cc(C(=O)NC[C@](O)(c2cc3c(c(-c4ccc(Cl)c(Cl)c4Cl)n2)OC[C@]3(C)C(N)=O)C2CC2)cc2cn(C3CC3)nc12 [Example 60]	< 200 nM	< 500 nM
COc1cc(C(=O)NC[C@](O)(c2cc3c(c(-c4cc(F)c(F)cc4F)n2)OC[C@]3(C)C(N)=O)C2CC2)cc2cc(C(F)(F)F)cnc12 [Example 46]	< 200 nM	> 500 nM
[2H]C([2H])([2H])c1nc2c(OC)cc(C(=O)NC[C@@](O)(c3cccc(F)c3)c3cc4c(c(-c5ccc(F)c(Cl)c5Cl)n3)OC[C@]4(C)C(N)=O)cc2s1 [Example 272]	< 200 nM	< 500 nM
CCNC(=O)[C@@]1(C)COc2c1cc([C@@](O)(CNC(=O)c1cc(OC)c3nn(C4CC4)cc3c1)c1ccccc1)nc2-c1cc(Cl)c(F)cc1F [Example 142]	< 200 nM	< 500 nM
COc1cc(C(=O)NC[C@@](O)(c2ccccc2)c2cc3c(c(-c4cc(C(F)(F)F)ccc4F)n2)OC[C@]3(C)C(N)=O)cc2cn(C(F)F)nc12 [Example 148]	< 200 nM	< 500 nM
